Results published in US8822451B2, “Modulators of ATP-binding cassette transporters” (Vertex Pharmaceuticals Incorporated, priority 2005, dated 2014).

What follows are compounds tested against T1, […]F508-CFTR (Homo sapiens, UniProt P13569, DEL508-508) (assay: Assay results of Table 3: ΔF508-CFTR modulation, membrane potential optical assay (assay format not stated)). Settings: efficacy range; NIH3T3 mouse fibroblasts stably expressing […]F508-CFTR (optical assays).
T1 construct: expressed in transfected cells
Type: cell-based
From the text: A. Membrane Potential Optical Methods for Assaying […]F508-CFTR Modulation Properties of Compounds
The optical membrane potential assay utilized voltage-sensitive FRET sensors described by Gonzalez and Tsien (See, Gonzalez, J. E. and R. Y. Tsien (1995) “Voltage sensing by fluorescence resonance energy transfer in single cells” Biophys J 69(4): 1272-80, and Gonzalez, J. E. and R. Y. Tsien (1997) “Improved indicators of cell membrane potential that use fluorescence resonance energy transfer” Chem Biol 4(4): 269-77) in combination with instrumentation for measuring fluorescence changes such as the Voltage/Ion Probe Reader (VIPR) (See, Gonzalez, J. E., K. Oades, et al. (1999) “Cell-based assays and instrumentation for screening ion-channel targets” Drug Discov Today 4(9): 431-439).
These voltage sensitive assays are based on the change in fluorescence resonant energy transfer (FRET) between the membrane-soluble, voltage-sensitive dye, DiSBAC2(3), and a fluorescent phospholipid, CC2-DMPE, which is attached to the outer leaflet of the plasma membrane and acts as a FRET donor. Changes in membrane potential (Vm) cause the negatively charged DiSBAC2(3) to redistribute across the plasma membrane and the amount of energy transfer from CC2-DMPE changes accordingly. The changes in fluorescence emission were monitored using VIPR™ II, which is an integrated liquid handler and fluorescent detector designed to conduct cell-based screens in 96- or 384-well microtiter plates.
To identify small molecules that correct the trafficking defect associated with ΔF508-CFTR; a single-addition HTS assay format was developed. The cells were incubated in serum-free medium for 16 hrs at 37° C. in the presence or absence (negative control) of test compound. As a positive control, cells plated in 384-well plates were incubated for 16 hrs at 27° C. to “temperature-correct” […]F508-CFTR. The cells were subsequently rinsed 3× with Krebs Ringers solution and loaded with the voltage-sensitive dyes. To activate […]F508-CFTR, 10 µM forskolin and the CFTR potentiator, genistein (20 µM), were added along with Cl^−-free medium to each well. The addition of Cl^−-free medium promoted Cl^− efflux in response to […]F508-CFTR activation and the resulting membrane depolarization was optically monitored using the FRET-based voltage-sensor dyes.
To identify potentiators of […]F508-CFTR, a double-addition HTS assay format was developed. During the first addition, a Cl^−-free medium with or without test compound was added to each well. After 22 sec, a second addition of Cl^−-free medium containing 2-10 µM forskolin was added to activate […]F508-CFTR. The extracellular Cl^− concentration following both additions was 28 mM, which promoted Cl^− efflux in response to […]F508-CFTR activation and the resulting membrane depolarization was optically monitored using the FRET-based voltage-sensor dyes.
Bath Solution #1: (in mM) NaCl 160, KCl 4.5, CaCl2 2, MgCl2 1, HEPES 10, pH 7.4 with NaOH.
Chloride-free bath solution: Chloride salts in Bath Solution #1 are substituted with gluconate salts.
CC2-DMPE: Prepared as a 10 mM stock solution in DMSO and stored at −20° C.
DiSBAC2(3): Prepared as a 10 mM stock in DMSO and stored at −20° C.
NIH3T3 mouse fibroblasts stably expressing […]F508-CFTR are used for optical measurements of membrane potential. The cells are maintained at 37° C. in 5% CO2 and 90% humidity in Dulbecco's modified Eagle's medium supplemented with 2 mM glutamine, 10% fetal bovine serum, 1× NEAA, […]-ME, 1× pen/strep, and 25 mM HEPES in 175 cm^2 culture flasks. For all optical assays, the cells were seeded at 30,000/well in 384-well matrigel-coated plates and cultured for 2 hrs at 37° C. before culturing at 27° C. for 24 hrs for the potentiator assay. For the correction assays, the cells are cultured at 27° C. or 37° C. with and without compounds for 16-24 hoursB.

T1 sequence (P13569 with tags, fused parts or gaps DEL508-508): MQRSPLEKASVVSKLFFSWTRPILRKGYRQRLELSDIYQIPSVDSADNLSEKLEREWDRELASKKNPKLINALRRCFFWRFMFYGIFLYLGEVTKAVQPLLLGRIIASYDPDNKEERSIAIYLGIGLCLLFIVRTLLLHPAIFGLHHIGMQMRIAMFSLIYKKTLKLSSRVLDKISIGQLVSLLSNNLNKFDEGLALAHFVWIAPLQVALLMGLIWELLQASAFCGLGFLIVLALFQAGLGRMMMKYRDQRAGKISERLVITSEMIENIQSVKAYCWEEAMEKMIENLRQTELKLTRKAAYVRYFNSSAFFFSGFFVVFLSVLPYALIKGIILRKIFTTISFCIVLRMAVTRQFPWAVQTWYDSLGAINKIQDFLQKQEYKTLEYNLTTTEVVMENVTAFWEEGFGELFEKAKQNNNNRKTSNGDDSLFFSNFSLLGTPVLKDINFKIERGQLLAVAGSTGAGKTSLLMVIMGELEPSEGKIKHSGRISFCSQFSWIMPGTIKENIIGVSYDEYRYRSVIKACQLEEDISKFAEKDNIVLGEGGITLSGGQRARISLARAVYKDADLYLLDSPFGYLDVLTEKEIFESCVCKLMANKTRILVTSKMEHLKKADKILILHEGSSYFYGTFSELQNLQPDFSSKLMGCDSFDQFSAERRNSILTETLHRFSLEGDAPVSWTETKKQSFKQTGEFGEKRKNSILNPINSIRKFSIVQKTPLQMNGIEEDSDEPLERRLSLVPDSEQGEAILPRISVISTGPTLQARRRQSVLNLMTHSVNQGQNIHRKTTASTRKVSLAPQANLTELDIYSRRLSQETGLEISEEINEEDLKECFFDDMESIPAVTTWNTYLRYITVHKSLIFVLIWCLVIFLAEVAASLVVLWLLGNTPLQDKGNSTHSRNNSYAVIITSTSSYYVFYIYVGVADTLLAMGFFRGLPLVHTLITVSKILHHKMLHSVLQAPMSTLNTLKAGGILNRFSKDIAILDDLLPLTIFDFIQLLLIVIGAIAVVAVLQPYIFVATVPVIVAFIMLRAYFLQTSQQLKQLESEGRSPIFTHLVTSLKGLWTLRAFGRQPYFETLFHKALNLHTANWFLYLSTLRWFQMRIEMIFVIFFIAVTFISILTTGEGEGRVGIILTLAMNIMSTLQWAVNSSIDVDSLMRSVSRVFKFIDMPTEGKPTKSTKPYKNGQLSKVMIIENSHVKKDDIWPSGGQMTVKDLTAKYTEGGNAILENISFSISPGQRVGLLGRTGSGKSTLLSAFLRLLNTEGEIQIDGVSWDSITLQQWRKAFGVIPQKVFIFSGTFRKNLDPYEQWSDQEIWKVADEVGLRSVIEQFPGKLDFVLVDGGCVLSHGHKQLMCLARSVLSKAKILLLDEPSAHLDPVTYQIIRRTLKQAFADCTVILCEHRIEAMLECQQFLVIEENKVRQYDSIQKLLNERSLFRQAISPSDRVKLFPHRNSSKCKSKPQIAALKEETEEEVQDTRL

| SMILES | Efficacy |
| --- | --- |
| CC(C)CCN(CCC(C)C)c1nc(C(N)=O)cc(-c2ccccc2)n1 [Compound 104] | + (+ corresponds to Efficacy less than 50) |
| CCCN(CC)c1nc(C(N)=O)cc(-c2ccccc2)n1 [Compound 34] | +++ (+++ corresponds to Efficacy greater than 100) |
| CCN(CC)c1nc(C(N)=O)cc(-c2cccc(Cl)c2)n1 [Compound 98] | +++ (+++ corresponds to Efficacy greater than 100) |
| CCN(CC)c1nc(C(N)=O)cc(-c2cccc(C)c2)n1 [Compound 56] | +++ (+++ corresponds to Efficacy greater than 100) |
| CCN(CC)c1nc(C(N)=O)cc(-c2cccc(C(=O)OC(C)C)c2)n1 [Compound 85] | ++ (++ corresponds to Efficacy between 100 and 50) |
| CN(Cc1cccnc1)c1nc(C(N)=O)cc(-c2ccccc2)n1 [Compound 18] | ++ (++ corresponds to Efficacy between 100 and 50) |
| NC(=O)c1cc(-c2ccccc2)nc(N2CCC2)n1 [Compound 183] | ++ (++ corresponds to Efficacy between 100 and 50) |
| CCCCN(CC)c1nc(C(N)=O)cc(-c2ccccc2)n1 [Compound 121] | +++ (+++ corresponds to Efficacy greater than 100) |
| CNC(=O)c1cc(-c2ccccc2)nc(NCc2ccco2)n1 [Compound 2] | ++ (++ corresponds to Efficacy between 100 and 50) |
| CC1CC(C)CN(c2nc(C(N)=O)cc(-c3ccccc3)n2)C1 (centres unmarked) [Compound 113] | ++ (++ corresponds to Efficacy between 100 and 50) |
| CCN(CC)c1nc(C(N)=O)cc(-c2csc3ccccc23)n1 [Compound 214] | ++ (++ corresponds to Efficacy between 100 and 50) |
| NC(=O)c1cc(-c2ccccc2)nc(N2CC=CCC2)n1 [Compound 46] | +++ (+++ corresponds to Efficacy greater than 100) |
| CCNc1nc(C(N)=O)cc(-c2ccccc2)n1 [Compound 215] | ++ (++ corresponds to Efficacy between 100 and 50) |
| COc1ccc(-c2cc(C(N)=O)nc(NCc3ccco3)n2)cc1 [Compound 176] | ++ (++ corresponds to Efficacy between 100 and 50) |
| NC(=O)c1cc(-c2cc(F)cc(F)c2)nc(N2CCCCC2)n1 [Compound 219] | + (+ corresponds to Efficacy less than 50) |
| NC(=O)c1cc(-c2ccccc2)nc(N2CCSC2)n1 [Compound 169] | +++ (+++ corresponds to Efficacy greater than 100) |
| CCNc1nc(C(N)=O)cc(-c2cccc(OC)c2)n1 [Compound 138] | ++ (++ corresponds to Efficacy between 100 and 50) |
| NC(=O)c1cc(-c2ccccc2)nc(N2CCCCCC2)n1 [Compound 68] | ++ (++ corresponds to Efficacy between 100 and 50) |
| CCN(CC)c1nc(C(N)=O)cc(-c2cc(C)cs2)n1 [Compound 66] | +++ (+++ corresponds to Efficacy greater than 100) |

| SMILES | Efficacy |
| --- | --- |
| Cc1cc(-c2cc(C(N)=O)nc(N3CCCCC3)n2)ccc1F [Compound 175] | ++ (++ corresponds to Efficacy between 100 and 50) |
| COc1ccc(-c2cc(C(N)=O)nc(N3CCCCC3)n2)c(OC)c1 [Compound 65] | ++ (++ corresponds to Efficacy between 100 and 50) |
| NC(=O)c1cc(-c2ccccc2)nc(N2CCSCC2)n1 [Compound 33] | +++ (+++ corresponds to Efficacy greater than 100) |
| COc1cccc(-c2cc(C(N)=O)nc(NCC3CC3)n2)c1 [Compound 203] | +++ (+++ corresponds to Efficacy greater than 100) |
| COc1cccc(-c2cc(C(N)=O)nc(N3CCCCCC3)n2)c1 [Compound 161] | +++ (+++ corresponds to Efficacy greater than 100) |
| NC(=O)c1cc(-c2ccccc2)nc(N2CCC(Cc3ccccc3)CC2)n1 [Compound 37] | ++ (++ corresponds to Efficacy between 100 and 50) |
| NC(=O)c1cc(-c2ccccc2)nc(N2CCC(O)(c3cccc(C(F)(F)F)c3)CC2)n1 [Compound 96] | ++ (++ corresponds to Efficacy between 100 and 50) |
| CCOc1ccccc1-c1cc(C(N)=O)nc(N2CCCCC2)n1 [Compound 127] | ++ (++ corresponds to Efficacy between 100 and 50) |
| CCOc1cccc(-c2cc(C(N)=O)nc(N(CC)CC)n2)c1 [Compound 212] | +++ (+++ corresponds to Efficacy greater than 100) |
| CC(C)(C)Nc1nc(C(N)=O)cc(-c2ccccc2)n1 [Compound 71] | ++ (++ corresponds to Efficacy between 100 and 50) |
| CCCCN(CCC)c1nc(C(N)=O)cc(-c2ccccc2)n1 [Compound 118] | ++ (++ corresponds to Efficacy between 100 and 50) |
| CCOCCN(CCOCC)c1nc(C(N)=O)cc(-c2ccccc2)n1 [Compound 190] | ++ (++ corresponds to Efficacy between 100 and 50) |
| CCCN(CC1CC1)c1nc(C(N)=O)cc(-c2ccc(OC)cc2)n1 [Compound 197] | ++ (++ corresponds to Efficacy between 100 and 50) |
| NC(=O)c1cc(-c2cc(Cl)cc(Cl)c2)nc(N2CCCCC2)n1 [Compound 199] | ++ (++ corresponds to Efficacy between 100 and 50) |
| C=C(C)CN(CC)c1nc(C(N)=O)cc(-c2ccccc2)n1 [Compound 188] | +++ (+++ corresponds to Efficacy greater than 100) |
| CCN(CCO)c1nc(C(N)=O)cc(-c2ccccc2OC)n1 [Compound 228] | ++ (++ corresponds to Efficacy between 100 and 50) |
| C=CCNc1nc(C(N)=O)cc(-c2cccc(OC)c2)n1 [Compound 48] | ++ (++ corresponds to Efficacy between 100 and 50) |
| COc1ccc(OC)c(-c2cc(C(N)=O)nc(N3CCCCC3)n2)c1 [Compound 8] | ++ (++ corresponds to Efficacy between 100 and 50) |

Same assay, conditions: potency range; NIH3T3 mouse fibroblasts stably expressing […]F508-CFTR (optical assays)

| SMILES | EC50 [µM] |
| --- | --- |
| CC(C)CCN(CCC(C)C)c1nc(C(N)=O)cc(-c2ccccc2)n1 [Compound 104] | 1 to 5 |
| CCCN(CC)c1nc(C(N)=O)cc(-c2ccccc2)n1 [Compound 34] | 1 to 5 |
| CCN(CC)c1nc(C(N)=O)cc(-c2cccc(Cl)c2)n1 [Compound 98] | < 1 |
| CCN(CC)c1nc(C(N)=O)cc(-c2cccc(C)c2)n1 [Compound 56] | 1 to 5 |
| CCN(CC)c1nc(C(N)=O)cc(-c2cccc(C(=O)OC(C)C)c2)n1 [Compound 85] | < 1 |
| CN(Cc1cccnc1)c1nc(C(N)=O)cc(-c2ccccc2)n1 [Compound 18] | > 5 |
| NC(=O)c1cc(-c2ccccc2)nc(N2CCC2)n1 [Compound 183] | > 5 |
| CCCCN(CC)c1nc(C(N)=O)cc(-c2ccccc2)n1 [Compound 121] | 1 to 5 |
| CNC(=O)c1cc(-c2ccccc2)nc(NCc2ccco2)n1 [Compound 2] | > 5 |
| CC1CC(C)CN(c2nc(C(N)=O)cc(-c3ccccc3)n2)C1 (centres unmarked) [Compound 113] | 1 to 5 |
| CCN(CC)c1nc(C(N)=O)cc(-c2csc3ccccc23)n1 [Compound 214] | < 1 |
| NC(=O)c1cc(-c2ccccc2)nc(N2CC=CCC2)n1 [Compound 46] | 1 to 5 |
| CCNc1nc(C(N)=O)cc(-c2ccccc2)n1 [Compound 215] | > 5 |
| COc1ccc(-c2cc(C(N)=O)nc(NCc3ccco3)n2)cc1 [Compound 176] | > 5 |
| NC(=O)c1cc(-c2cc(F)cc(F)c2)nc(N2CCCCC2)n1 [Compound 219] | 1 to 5 |
| NC(=O)c1cc(-c2ccccc2)nc(N2CCSC2)n1 [Compound 169] | > 5 |
| CCNc1nc(C(N)=O)cc(-c2cccc(OC)c2)n1 [Compound 138] | > 5 |
| NC(=O)c1cc(-c2ccccc2)nc(N2CCCCCC2)n1 [Compound 68] | 1 to 5 |
| CCN(CC)c1nc(C(N)=O)cc(-c2cc(C)cs2)n1 [Compound 66] | < 1 |

| SMILES | EC50 [µM] |
| --- | --- |
| Cc1cc(-c2cc(C(N)=O)nc(N3CCCCC3)n2)ccc1F [Compound 175] | > 5 |
| COc1ccc(-c2cc(C(N)=O)nc(N3CCCCC3)n2)c(OC)c1 [Compound 65] | > 5 |
| NC(=O)c1cc(-c2ccccc2)nc(N2CCSCC2)n1 [Compound 33] | 1 to 5 |
| COc1cccc(-c2cc(C(N)=O)nc(NCC3CC3)n2)c1 [Compound 203] | > 5 |
| COc1cccc(-c2cc(C(N)=O)nc(N3CCCCCC3)n2)c1 [Compound 161] | 1 to 5 |
| NC(=O)c1cc(-c2ccccc2)nc(N2CCC(Cc3ccccc3)CC2)n1 [Compound 37] | > 5 |
| NC(=O)c1cc(-c2ccccc2)nc(N2CCC(O)(c3cccc(C(F)(F)F)c3)CC2)n1 [Compound 96] | > 5 |
| CCOc1ccccc1-c1cc(C(N)=O)nc(N2CCCCC2)n1 [Compound 127] | 1 to 5 |
| CCOc1cccc(-c2cc(C(N)=O)nc(N(CC)CC)n2)c1 [Compound 212] | < 1 |
| CC(C)(C)Nc1nc(C(N)=O)cc(-c2ccccc2)n1 [Compound 71] | > 5 |
| CCCCN(CCC)c1nc(C(N)=O)cc(-c2ccccc2)n1 [Compound 118] | < 1 |
| CCOCCN(CCOCC)c1nc(C(N)=O)cc(-c2ccccc2)n1 [Compound 190] | < 1 |
| CCCN(CC1CC1)c1nc(C(N)=O)cc(-c2ccc(OC)cc2)n1 [Compound 197] | 1 to 5 |
| NC(=O)c1cc(-c2cc(Cl)cc(Cl)c2)nc(N2CCCCC2)n1 [Compound 199] | 1 to 5 |
| C=C(C)CN(CC)c1nc(C(N)=O)cc(-c2ccccc2)n1 [Compound 188] | < 1 |
| CCN(CCO)c1nc(C(N)=O)cc(-c2ccccc2OC)n1 [Compound 228] | > 5 |
| C=CCNc1nc(C(N)=O)cc(-c2cccc(OC)c2)n1 [Compound 48] | > 5 |
| COc1ccc(OC)c(-c2cc(C(N)=O)nc(N3CCCCC3)n2)c1 [Compound 8] | 1 to 5 |
